These results are taken from patent publication US9695222B2, “Ghrelin mimetic polypeptide hapten immunoconjugates having improved solubility and immunogenicity and methods of use thereof” (The Scripps Research Institute, priority 2011, dated 2017).

One may read the solubility as the dissolved amount per volume that the medium holds. Read a high solubility as much dissolved substance.

The test system of one series is Ser-3-n-octanoyl ghrelin. The series can be described thus: Competition ELISA of plasma of immunized mice (Kd-app for ghrelin). It is filed as binding. The conditions noted are these: Tables 4A and 4B. As for the experimental part:
Immunization involved five (5) immunizations over ten (10) weeks. Age and weight-matched mice received immunizations (i.p. 0.2 mL) 90 min before the dark cycle on experimental days 0, 14 (2 weeks), 28 (4 weeks), 49 (7 weeks) and 70 (10 weeks). All immunizations used ALUM (Pierce) as the adjuvant, and contained 50 μg of protein (i.e. immunoconjugates of Ghr1, Ghr2, PEG-Ghr4 and PEG-Ghr5 peptides with carrier proteins KLH, TT or CRM197). Tail blood was collected one week post-immunization, centrifuged and plasma analyzed for antibody titers and ghrelin binding affinity.
For competitive ELISA, plates (96-well) were coated overnight at 4° C. with freshly prepared ghrelin-BSA conjugate. The plates were blocked with 4% skim milk, washed and plasma samples were added at appropriate dilutions. The plates were washed and Ser-3-n-octanoyl ghrelin was added to the wells in a concentration series starting at 100 μM. Plates were incubated for 1 h at 37° C., thoroughly washed, and goat anti-mouse-horseradish peroxidase (HRP) conjugate (Pierce) was added. After an incubation period of 1 h at RT, plates were thoroughly washed again and the HRP substrate (TMB substrate kit; Pierce) was added, the reaction was allowed to develop for 15 min and stopped by the addition of 2M H2SO4. The absorbance (450 nm) was read and the values plotted using GraFit (Erithacus Software Ltd). The free antigen concentration at which the absorbance value is 50% of the maximum absorbance was considered the average Kd-app of the plasma for ghrelin.

Another series in a line: physchem. The conditions noted are these: water.
Series [1] is described as follows: Hydrolytic stability of ghrelin haptens in buffered solutions for 7 days. It is filed as physicochemical. The procedure:
To test the hydrolytic stability of the Ghrelin haptens, 1 mg/mL solutions of Ghr1, Ghr4, Ghr5 and the corresponding Ghr4 and Ghr5 haptens comprising the spacer moiety (PEG-Ghr4 and PEG-Ghr5 respectively) were maintained in buffered solutions for 7 days at either 4° C. or 37° C. at pH values of pH5 (in 10 mM citrate buffer), pH6 (in 10 mM maleate buffer) or pH7 (in 10 mM phosphate buffer). FIG. 2 is a graphical representation comparing the percentage of the active acyl form of each Ghrelin hapten present after seven days with the percentage of total hydrolysis and the percentage of total oxidative degradation for each hapten.

Experiment in series [2]: not given
This is another data set of the same source.

The structures appear in SMILES notation. Converted amounts (≈) assume the structure as drawn. Like-named read-outs stand apart in the source and are kept apart here. Non-standard residues stand in square brackets, D forms with d. Residues, ends and D or L forms follow the SMILES beside them. *: point of attachment. PEG4 = NCCOCCOCCOCCOCCC(=O)O; Octanoyl = CCCCCCCC(=O)*; Butyryl = CCCC(=O)*

Take `CCCC(=O)OC[C@H](NC(=O)[C@H](CO)NC(=O)CN)C(=O)N[C@@H](Cc1ccccc1)C(=O)N[C@@H](CC(C)C)C(=O)N[C@@H](CO)C(=O)N1CCC[C@H]1C(=O)N[C@@H](CCC(=O)O)C(=O)N[C@@H](Cc1c[nH]cn1)C(=O)N[C@@H](CCC(N)=O)C(=O)N[C@@H](CS)C(N)=O` [Ghr1]: the “Affinity of induced anti-ghrelin antibodies” value in the series on Ser-3-n-octanoyl ghrelin is given as “high affinity anti-ghrelin antibodies in some instances”. Moreover, in the series with Ser-3-n-octanoyl ghrelin, the “Selectivity of induced antibodies for acylated ghrelin over the des-acyl form” value is on record as “no particular selectivity”. For the same compound, the solubility in the series “physchem” (pH 5), in the series “physchem” (pH 6) and in “physchem” (pH 7) was more than 1000 µg/mL in each case.

As for `CC(C)C[C@H](NC(=O)[C@H](CCCCN)NC(=O)[C@H](C)NC(=O)[C@@H]1CCCN1C(=O)[C@@H]1CCCN1C(=O)[C@H](CCCCN)NC(=O)[C@H](CCCCN)NC(=O)[C@H](CO)NC(=O)[C@H](CCC(=O)O)NC(=O)[C@H](CCCCN)NC(=O)[C@H](CCCNC(=N)N)NC(=O)[C@H](CCC(N)=O)NC(=O)[C@H](CCC(N)=O)NC(=O)[C@@H](N)CS)C(=O)N[C@@H](CCC(N)=O)C(=O)N1CCC[C@H]1C(=O)N[C@@H](CCCNC(=N)N)C(N)=O` [Ghr2], the “Affinity of induced anti-ghrelin antibodies” value in the series on Ser-3-n-octanoyl ghrelin is recorded as “high affinity anti-ghrelin antibodies in some instances”. The “Selectivity of induced antibodies for acylated ghrelin over the des-acyl form” value with Ser-3-n-octanoyl ghrelin is “no particular selectivity”. Moreover, the solubility in “physchem” (pH 5), in the series “physchem” (pH 6) and in the series “physchem” (pH 7) was more than 1000 µg/mL throughout.

Take `CCCCCCCC(=O)OC[C@H](NC(=O)[C@H](CO)NC(=O)CN)C(=O)N[C@@H](Cc1ccccc1)C(=O)N[C@@H](CC(C)C)C(=O)NCCOCCOCCOCCOCCC(=O)N[C@@H](CS)C(N)=O` [PEG-Ghr5, GSS(octanoyl)FL-PEG4-C-NH2] (H-GSS(Octanoyl)FL[PEG4]C-NH2): in series [1] (7 days, FIG. 2), the “Hydrolysis relative to Ghr5 without the spacer moiety” value is reported as “less hydrolysis” and the “Oxidative degradation relative to Ghr5 without the spacer moiety” value was “significantly reduced oxidative degradation”. For the same compound, in series [1] (pH 5, 7 days, 4° C.), the “Hydrolysis compared with native protein (rGhrelin)” value is “approximately the same amount of hydrolysis as the native protein” and the “Oxidative degradation compared with Ghr5 hapten” value was “significantly less oxidative degradation”. In addition, the solubility in “physchem” (pH 5) is more than 1000 µg/mL. This compound also had a solubility in the series “physchem” (pH 6) of more than 1000 µg/mL. This compound displayed a solubility in the series “physchem” (pH 7) of approximately 400 µg/mL (≈ 406 µM).

Take `CCCC(=O)OC[C@H](NC(=O)[C@H](CO)NC(=O)CN)C(=O)N[C@@H](Cc1ccccc1)C(=O)N[C@@H](CC(C)C)C(=O)N[C@@H](CS)C(N)=O` [Ghr4, GSS(butyryl)FLC-NH2] (H-GSS(Butyryl)FLC-NH2): the “Solubility of hapten at pH5” value was “insoluble”. In the series “physchem” (pH 6), this compound had a solubility of more than 1000 µg/mL. In addition, in the series “physchem” (pH 7), the solubility is less than 100 µg/mL.

As to `CCCCCCCC(=O)OC[C@H](NC(=O)[C@H](CO)NC(=O)CN)C(=O)N[C@@H](Cc1ccccc1)C(=O)N[C@@H](CC(C)C)C(=O)N[C@@H](CS)C(N)=O` [Ghr5, GSS(octanoyl)FLC-NH2] (H-GSS(Octanoyl)FLC-NH2), the “Solubility of hapten at pH5” value is on record as “insoluble”. Besides, for the setting “pH6”, the “Solubility of hapten at pH6” value is “insoluble”. Also, the “Solubility of hapten at pH7” value (pH7) is “insoluble”.

For `CCCC(=O)OC[C@H](NC(=O)[C@H](CO)NC(=O)CN)C(=O)N[C@@H](Cc1ccccc1)C(=O)N[C@@H](CC(C)C)C(=O)NCCOCCOCCOCCOCCC(=O)N[C@@H](CS)C(N)=O` [PEG-Ghr4, GSS(butyryl)FL-PEG4-C-NH2] (H-GSS(Butyryl)FL[PEG4]C-NH2), the solubility in series [2] (pH5), in series [2] (pH6) and in series [2] (pH7) was more than 1000 µg/mL in each case.
